Experiments:
[1] = target: T1, human glycogen phosphorylase a (Homo sapiens, UniProt P06737); test: Glycogen phosphorylase a activity test (reverse direction, release of inorganic phosphate); assay type: biochemical; settings: 10 μM test substance; duplicate determinations; 40 min at room temperature
T1 sequence (P06737 2-847 limits assumed): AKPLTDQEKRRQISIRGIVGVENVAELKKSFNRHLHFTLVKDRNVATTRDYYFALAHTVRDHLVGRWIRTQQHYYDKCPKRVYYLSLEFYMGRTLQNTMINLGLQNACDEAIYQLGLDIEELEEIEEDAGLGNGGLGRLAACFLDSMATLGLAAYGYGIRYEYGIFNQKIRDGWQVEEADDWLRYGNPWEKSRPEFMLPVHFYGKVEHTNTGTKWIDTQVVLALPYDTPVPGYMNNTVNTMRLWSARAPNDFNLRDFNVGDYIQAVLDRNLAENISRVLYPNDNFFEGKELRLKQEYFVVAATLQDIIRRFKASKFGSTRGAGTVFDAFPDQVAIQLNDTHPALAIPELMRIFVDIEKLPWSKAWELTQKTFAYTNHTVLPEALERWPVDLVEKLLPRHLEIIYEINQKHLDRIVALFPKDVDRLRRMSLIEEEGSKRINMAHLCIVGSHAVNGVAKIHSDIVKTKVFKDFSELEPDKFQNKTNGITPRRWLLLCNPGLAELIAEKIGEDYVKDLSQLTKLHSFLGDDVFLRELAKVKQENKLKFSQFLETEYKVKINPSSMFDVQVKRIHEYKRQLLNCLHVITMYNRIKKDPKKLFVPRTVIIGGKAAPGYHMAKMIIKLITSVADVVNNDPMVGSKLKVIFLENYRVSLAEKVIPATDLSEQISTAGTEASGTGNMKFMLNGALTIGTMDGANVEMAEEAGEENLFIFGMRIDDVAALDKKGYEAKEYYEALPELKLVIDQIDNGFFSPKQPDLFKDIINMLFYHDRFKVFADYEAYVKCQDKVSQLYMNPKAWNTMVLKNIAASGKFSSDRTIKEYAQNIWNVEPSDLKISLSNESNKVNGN

[2] = target: T1, human glycogen phosphorylase a; test: Glycogen phosphorylase a activity test (reverse direction, release of inorganic phosphate); assay type: biochemical; settings: 10 μM test substance; duplicate determinations; 40 min at room temperature; remark: listed apart in the source
Description: Glycogen Phophorylase a Activity Test
All reactions were carried out as duplicate determinations in 96-well microtiter plates (half area plates, Costar No. 3696), and the change in absorption as a consequence of the formation of the reaction product was measured at the wavelength specified below in a Multiskan Ascent Elisa Reader (Lab Systems, Finland).
In order to measure the GPa enzyme activity in the reverse direction, the conversion of glucose 1-phosphate to glycogen and inorganic phosphate was measured by the general method of Engers et al. (Engers H D, Shechosky S, Madsen N B, Can J Biochem 1970 July;48(7):746–754) with the following modifications: human glycogen phosphorylase a (for example containing 0.76 mg of protein/ml (Aventis Pharma Deutschland GmbH), dissolved in buffer solution E (25 mM β-glycerophosphate, pH 7.0, 1 mM EDTA and 1 mM dithiothreitol) was diluted to a concentration of 10 μg of protein/ml with buffer T (50 mM Hepes, pH 7.0, 100 mM KCl, 2.5 mM EDTA, 2.5 mM MgCl26H2O) and addition of 5 mg/ml of glycogen. Test substances were prepared as a 10 mM solution in DMSO and diluted to 50 μM with buffer solution T. To 10 μl of this solution were added 10 μl of 37.5 mM glucose dissolved in buffer solution T and 5 mg/ml of glycogen, and also 10 μl of a solution of human glycogen phosphorylase a (10 μg of protein/ml) and 20 μl of 2.5 mM glucose 1-phosphate. The base value of the activity of glycogen phosphorylase a in the absence of test substance was determined by adding 10 μl of buffer solution T (0.1% DMSO). The mixture was incubated at room temperature for 40 minutes and the released inorganic phosphate was determined by means of the general method of Drueckes et al. (al (Drueckes P, Schinzel R, Palm D, Anal Biochem 1995 Sep. 1;230(1):173–177) with the following modifications: 50 μl of a stop solution of 7.3 mM of ammonium molybdate, 10.9 mM of zinc acetate, 3.6% of ascorbic acid, 0.9% of SDS are added to 50 μl of the enzyme mixture. After 60 minutes of incubation at 45° C., the absorption was measured at 820 nm. To determine the background absorption, the stop solution was added immediately after the addition of the glucose 1-phosphate solution in a separate reaction. This test was carried out at a concentration of 10 μM of the test substance, in order to determine the respective inhibition of glycogen phosphorylase a by the test substance in vitro.

Row | Structure (SMILES) | IC50 at 10 μM [1] | melting point | % inhibition at 10 μM [2]
1 | O=C(NC(=O)c1cc(F)c(F)cc1Cl)Nc1cc(F)ccc1N1CCCC(C(=O)O)C1 (stereo not shown) [Example 17] | 0.01 µM | – | –
2 | O=C(NC(=O)c1cc(F)c(F)cc1Cl)Nc1cc(Cl)ccc1N1CCCC(C(=O)O)C1 (stereo not shown) [Example 31] | 0.01 µM | – | –
3 | CNc1nn(-c2ccc(NC(=O)NC(=O)c3ccc(F)cc3Cl)c(C)c2)c(=O)o1 [Example 9f, 1-(2-chloro-4-fluorobenzoyl)-3-(2-methyl-4-(5-methylamino-2-oxo-3H-[1,3,4]-oxadiazol-3-yl)phenyl)urea] | – | 198 °C | 54%
4 | O=C(NC(=O)c1ccc(F)cc1Cl)Nc1ccc(-c2noc(=O)[nH]2)cc1OC(F)(F)F [Example 11e, 1-(2-chloro-4-fluorobenzoyl)-3-[4-(5-oxo-4,5-dihydro-[1,2,4]oxadiazol-3-yl)-2-trifluoromethoxyphenyl]urea] | – | 230.1 °C | 98%
5 | COC(=O)C1CCN(c2ccc(F)cc2NC(=O)NC(=O)c2cc(F)c(F)cc2Cl)CC1 [Example 39] | 0.01 µM | – | –
6 | O=C(NC(=O)c1cc(F)c(F)cc1Cl)Nc1ccc(-c2n[nH]c(O)n2)cc1OC(F)(F)F [Example 6f, 1-(2-chloro-4,5-difluorobenzoyl)-3-[2-trifluoromethoxy-4-(5-hydroxy-1H-[1,2,4]triazol-3-yl)phenyl]urea] | – | > 350 °C | 98%
7 | COC(=O)C1CCN(c2ccc(Cl)cc2NC(=O)NC(=O)c2cc(F)c(F)cc2Cl)CC1 [Example 29] | 0.01 µM | – | –
